What was measured:
MDA-435 cells [1] = experiment: Annexin-V FITC staining, MDA-435; format: cell-based, human
Method: (§1) The effect of Eno-1 siRNA silencing on tumor cell growth was even more dramatic in the MDA-435 breast cancer cells, where the viability in cells that were transfected with Eno-1 siRNA dropped to only about 17% of the control level (FIG. 40). In these cells the levels of silencing of α-enolase were also quite high, reaching 14% of the α-enolase levels present in the control transfected cells 6 days post-transfection (FIG. 41).
Apoptotic cells were measured following incubation with siRNAs. This assay was performed to determine the number of cells that were now susceptible to chemotherapeutic drugs. Cells transfected with siRNA were seeded in Lab-Tek 16-well chamber slides (Electron Microscopy Sciences, Hatfield, Pa.) at 10^4 cells/well 48 hrs post-transfection. Apoptosis was determined 16 hours later by annexin-V staining using the Annexin-V FLUOS kit (Roche, Ltd., Basel, CH) following the manufacturer's instructions. Slides were observed under a fluorescence microscope and images were taken using an Olympus digital camera and the Q-Capture software (QImaging, Burnaby, BC, CA).

MCF-7 cells = experiment: Clonogenic assay, MCF-7 cells; format: cell-based, human; settings: adriamycin-resistant MCF-7 cells, without drug
Method: Utilizing a clonogenic assay generated additional information concerning cell viability after drug-resistant cells were exposed to siRNA and chemotherapeutics. […] Taxol or Vincristine was added at IC10 or IC50 concentrations determined from MTT experiments for MCF-7 cells. […] The cells were further incubated for an additional 7 days. At the end of the incubation, the cells were stained with addition of a 0.5% Methylene Blue solution in 50% ethanol for 15 min. at RT. The staining solution was then removed and plates were dried overnight. The plates were scanned and the stained colonies were solubilized in 0.1% SDS. The absorbance of the resulting solution was determined by spectrophotometry at 660 nm.

MDA-435 cells [2] = experiment: cells; format: cell-based, human
Method: Similar tests utilizing α-enolase siRNA were performed on MDA-435 breast adenocarcinoma cells. Chemosensitivity to various drugs was determined for the MDA-435 cells as described above.

A549 cells = experiment: Transwell filter cell invasion assay, A549; format: cell-based, human
Method: Transwell filter chamber assays were performed using a Chemicon QCM 96-well invasion kit according to the manufacturer's instructions (Chemicon International, Inc., Temecula, Calif.). Eno-1 and control siRNA transfected cells were harvested 2 days post-transfection, resuspended in media without serum and seeded in 96-well Matrigel-coated transwell filter plates at 50,000 cells per well. Medium with 10% serum was used as a chemo-attractant in a feeder tray. The inserts were placed into the feeder tray, and the cells were subsequently incubated for 16 hours at 37° C. in an incubator containing a 5% CO2 atmosphere. Cells that invaded through the filter to the bottom tray were quantitated using the CyQUANT-GR dye according to the manufacturer's instructions (Molecular Probes, Eugene, Oreg.).
These assays test the ability of a cell to move across membranes, which is a hallmark of metastatic potential. To confirm the results shown in FIGS. 27A and 27B, the highly metastatic cell line MDA-MB-435 was transfected with a vector expressing the α-enolase siRNA and subjected to the transwell filter assay (FIGS. 28 and 29, respectively).

[3] = tested on: MCF-7 and MDA-231 breast cancer cells; experiment: BrdU incorporation cell proliferation assay, MCF-7 and MDA-231; format: cell-based, human; settings: MCF-7 and MDA-231 cells
Method: A determinant of cell division and viability, pre-requisites for angiogenesis, was assayed by BrdU incorporation in two breast cancer cell lines.

[4] = tested on: Detroit skin, Hfl fetal lung, and MRC-5 fetal lung fibroblast cell lines; experiment: MTT survival of normal fibroblast cells after α-enolase silencing; format: cell-based; settings: relative to mock or control siRNA
Method: Detroit skin, Hfl fetal lung, and MRC-5 fetal lung fibroblast cell lines were treated with α-enolase-targeted siRNA as described in Example 5.

[5] = tested on: MDA-435 breast cancer cells; experiment: BrdU incorporation DNA synthesis, MDA-435; format: cell-based, human; settings: MDA-435 cells
Text: as §1

α-enolase siRNA: siRNA duplex targeting human α-enolase mRNA; sense 5′-GGCUGUUGAGCACAUCAAUtt-3′ (SEQ ID NO: 1), antisense SEQ ID NO: 2; Ambion (antisense AUUGAUGUGCUCAACAGCC; bought from Ambion, sense has tt overhang, further chemistry not given here)
apoptosis by annexin-V FITC staining (MDA-435 cells [1]): increase in apoptosis
viability less than that of siRNA untreated cells (MCF-7 cells): 65%
cell viability, of the control level (MDA-435 cells [2]): about 17%
invasion across membranes (A549 cells): reduced the invasion
decrease in cell proliferation rates (BrdU) [3]: 40-50%
survival of normal fibroblast cells [4]: no effect on survival
decrease in DNA synthesis [5]: 50%

Reference: patent US20070077583A1, “Alpha enolase-directed diagnostics and therapeutics for cancer and chemotherapeutic drug resistance” (Aurelium BioPharma, Inc., priority 2005, published 2007)
